Patent US11066455B2, “Tmem100 peptides and variants thereof and their use in treating or preventing diseases or conditions” (The Johns Hopkins University, priority 2014, dated 2021)
* marks the point of attachment. Myristoyl = CCCCCCCCCCCCCC(=O)*

B1: Tmem100-3Q mutant (full-length, mouse) (protein)
chain: MTEESTKENLGAPKSPTPVTMEKNPKREVVVTTGPLVSEVQLMAATGGAELSCYRCIIPFAVVVFITGIVVTAVAYSFNSHGSIISIFGLVLLSSGLFLLASSALCWKVRQRNKKVQQQESQTALVVNQRCLFA

Test system: T1, TRPA1
T1 construct: percentage of cells responsive to CA; other: shortened CPP 2 μM; CA 10 μM; HEK293 TRPA1+TRPV1; vs scrambled; percentage of cells responsive to MO; other: peptide 200 nM pre-treatment; 500 nM MO; HEK293T TRPA1+TRPV1; percentage of cells that respond to 100 nM MO and 10 μM CA; other: HEK293T TRPA1+TRPV1, Tmem100-3Q-transfected vs lacki; reduction in the percentage of cells responding to MO
Assay: Calcium imaging of HEK293T cells expressing TRPA1 and TRPV1 (MO or CA)
Format: cell-based
Protocol: Calcium imaging assays were performed as previously described (Liu et al., 2009). Cells were loaded with 2 μM fura 2-acetomethoxy ester (Molecular Probes) for 30 min in the dark at room temperature or for 45 minutes at 37° C. for DRG and cell lines, respectively. After washing, cells were imaged at 340 and 380 nm excitation to detect intracellular free calcium under a fluorescent microscope (Nikon Eclipse TE2000-S) and Lambda 10B shutter (Sutter Instrument). The cells were bathed in calcium imaging buffer (pH 7.45, 130 mM NaCl, 3 mM KCl, 2.5 mM CaCl2, 10 mM HEPES, 10 mM glucose, 1.2 mM NaHCO3, with sucrose to increase osmolarity to 290 mOsm). The reagents and buffers were applied through a gravity perfusion system at a rate of […], including mustard oil (Sigma 377430), cinnamaldehyde (Sigma C80687), menthol (Sigma M2780), and capsaicin (Sigma M2028). Cells with high baseline 340/380 values (>1.5) were excluded for analysis. For DRG neurons, IB4 staining was performed in the chamber with the dilution of 1:200 (Molecular Probes 121412) for 160 seconds before washing off at the end of each test. Images were processed and analyzed with NIS-Elements BR 2.30 software (Nikon). A responsive cell was defined as one that with greater than a 20% increase in the 340/380 ratio above the baseline. Intracellular calibration for calcium was performed as previously described (Akopian et al., 2007). The data was analyzed with the experimenter blinded to the genotypes or constructs transfected.
DRG from 3 to 4-week old mice were collected in cold DH10 medium (90% DMEM/F-12, 10% FBS, 100 U/ml penicillin, and 100 μg/ml Streptomycin, Gibco) and treated with enzyme solution in HBSS containing collagenase (1.65 mg/mL, Worthington CLS I) and dispase (3.55 mg/mL, GIBCO 17105-041) at 37° C. for 30 minutes. After trituration and centrifugation, cells were resuspended in DH10, plated on glass coverslips coated with poly-D-lysine (0.5 mg/ml, Stoughton, Mass.) and laminin (10 μg/ml, Invitrogen), and cultured overnight in an incubator at 37° C. The neurons were tested within 24 hours. HEK293T, COS-7, and CHO cells were cultured in a medium consisting of 90% DMEM, 10% FBS, 100 U/mL penicillin, and 100 μg/ml Streptomycin. GlutaMAX (Gibco 35050-061) was also added for CHO cells. For calcium imaging, the cells were plated on glass coverslips coated with poly-D-lysine (0.5 mg/ml, Stoughton, Mass.). In the HEK cell studies the denominator is the cells expressing both TRPA1, TRPV1, and the designated constructs (i.e. Tmem100 or Tmem100-3Q mutant). mCherry:TRPV1:Tmem100 was transfected in 1:8:8 ratio into TRPA1 stable cell line (obtained from N. Tigue from GlaxoSmithKline) and used mCherry as the marker for the cells expressing the constructs 18 hours after transfection with Lipofectamine 2000. The transfection efficiency for Tmem100+TRPV1+TRPA1 triple-positive cells is 27±3%. This efficiency was determined by mCherry(+) divided by total number of cells in the bright fields.
The sequence from the last 28 amino acids of the C-terminus of the Tmem100-3Q mutant protein was synthesized and myristoylated at its N-terminus (myr-[…]-COOH) (SEQ ID NO: 8) by Twentyfirst Century Biochemicals. […] For the calcium imaging assay, the peptides were added to the calcium imaging buffer with a final concentration of 200 nM and incubated for at least […] at room temperature. For the mice behavioral assays, the peptides (5 μL, 2 mM) were injected subcutaneously in the hindpaw at least 30 minutes before testing. For the rat behavior assays, human T100-3Q (h-T100), a palmitoylated cell permeable peptide mutated based on the C terminus of human sequence in Tmem100, was applied. The sequence is Palmitoyl-[…]-COOH (SEQ ID NO: 7).

Molecule	percentage of cells responsive to MO (peptide 200 nM pre-treatment, 500 nM MO, HEK293T TRPA1+TRPV1)	percentage of cells that respond to 100 nM MO and 10 μM CA (HEK293T TRPA1+TRPV1, Tmem100-3Q-transfected vs lacking Tmem100-3Q)
myr-QRVLEQVLQNWSRRANVKQAQKFQVKCT-COOH (Myristoyl-QRVLEQVLQNWSRRANVKQAQKFQVKCT-OH; SMILES CCCCCCCCCCCCCC(=O)N[C@@H](CCC(N)=O)C(=O)N[C@@H](CCCNC(=N)N)C(=O)N[C@H](C(=O)N[C@@H](CC(C)C)C(=O)N[C@@H](CCC(=O)O)C(=O)N[C@@H](CCC(N)=O)C(=O)N[C@H](C(=O)N[C@@H](CC(C)C)C(=O)N[C@@H](CCC(N)=O)C(=O)N[C@@H](CC(N)=O)C(=O)N[C@@H](Cc1c[nH]c2ccccc12)C(=O)N[C@@H](CO)C(=O)N[C@@H](CCCNC(=N)N)C(=O)N[C@@H](CCCNC(=N)N)C(=O)N[C@@H](C)C(=O)N[C@@H](CC(N)=O)C(=O)N[C@H](C(=O)N[C@@H](CCCCN)C(=O)N[C@@H](CCC(N)=O)C(=O)N[C@@H](C)C(=O)N[C@@H](CCC(N)=O)C(=O)N[C@@H](CCCCN)C(=O)N[C@@H](Cc1ccccc1)C(=O)N[C@@H](CCC(N)=O)C(=O)N[C@H](C(=O)N[C@@H](CCCCN)C(=O)N[C@@H](CS)C(=O)N[C@H](C(=O)O)[C@@H](C)O)C(C)C)C(C)C)C(C)C)C(C)C) [scrambled]	18±2.8%	
B1		significantly lower
